pIC50: −log10 of the molar value.
Assays:
Glutamate NMDA receptor [1] = assay: Displacement of [3H]MK-801 from N-methyl-D-aspartate glutamate receptor; type: protein-complex assay, Rattus norvegicus
Glutamate NMDA receptor [2] = assay: Displacement of [3H]-SPD from N-methyl-D-aspartate glutamate receptor; type: protein-complex assay, Rattus norvegicus

SMILES | pIC50 (Glutamate NMDA receptor [1]) | pIC50 (Glutamate NMDA receptor [2])
Nc1cccc2c1C(=O)c1c(N)ccc(N)c1C2=O | 3.63 | 3.74
Nc1ccc2c(c1)C(=O)c1ccccc1C2=O | 3.92 | 3.94
Nc1ccc(N)c2c1C(=O)c1ccccc1C2=O | 3.25 | 3.39
Nc1ccc(N)c2c1C(=O)c1c(N)ccc(N)c1C2=O | < 3.00 | < 3.00
Nc1ccc(O)c2c1C(=O)c1ccccc1C2=O | 3.80 | 3.75
Nc1cccc2c1C(=O)c1ccccc1C2=O | 3.85 | 3.66
Nc1ccc(O)c2c1C(=O)c1c(N)ccc(O)c1C2=O | < 3.00 | < 3.00
Nc1ccc2c(c1N)C(=O)c1ccccc1C2=O | 3.38 | 3.22
Nc1cccc2c1C(=O)c1cccc(N)c1C2=O | 3.49 | 3.47
Nc1ccc2c(c1)C(=O)c1ccc(N)cc1C2=O | < 3.00 | < 3.00
O=C1c2ccccc2C(=O)c2ccccc21 [ANTHRAQUINONE] | < 3.00 | < 3.00
